Results: patent US10385103B2, “Cell-permeable (ICP)-SOCS3 recombinant protein and uses thereof” (CELLIVERY THERAPEUTICS, INC., priority 2014, dated 2019)

Test system: RAW 264.7 cells
Experiment: Quantitative cell-permeability of FITC-labeled aMTD- or rPeptide-fused CRA recombinant proteins (flow cytometry)
Assay type: cell-based
Source text: The aMTDs and rPeptides were fluorescently labeled and compared based on the critical factors for cell-permeability by using flow cytometry and confocal laser scanning microscopy (FIGS. 5 to 8). The cellular uptake of the peptide-fused non-functional cargo recombinant proteins could quantitatively be evaluated in flow cytometry, while confocal laser scanning microscopy allows intracellular uptake to be assessed visually. The analysis included recombinant proteins fused to a negative control [rP38] that has opposite characteristics (hydrophilic and aromatic sequence: […] NO: 952)) to the aMTDs (hydrophobic and aliphatic sequences). Relative cell-permeability (relative fold) of aMTDs to the negative control was also analyzed (Table 23 and FIG. 9). […] RAW 264.7 cells were treated with 10 μM FITC-labeled recombinant proteins for 1 hour at 37° C., washed three times with cold PBS, treated with 0.25% tripsin/EDTA (Sigma-Aldrich, St. Louis, Mo.) for 20 minutes at 37° C. to remove cell-surface bound proteins. Cell-permeability of these recombinant proteins were analyzed by flow cytometry (Guava, Millipore, Darmstadt, Germany) using the FlowJo cytometric analysis software (FIGS. 5 to 6).

[1] = cell-permeability of aMTD-fused CRA recombinant protein relative to negative control (A: rP38)
[2] = cell-permeability of aMTD-fused CRA recombinant protein relative to reference CPP (B: MTM12)
[3] = cell-permeability of aMTD-fused CRA recombinant protein relative to reference CPP (C: MTD85)
[4] = cell-permeability relative to negative control rP38 (A type), aMTD-fused CRA recombinant protein, 10 μM FITC-labeled, 1 hour, 37° C., RAW 264.7 cells
[5] = cell-permeability relative to reference CPP MTD85 (C type), aMTD-fused CRA recombinant protein, 10 μM FITC-labeled, 1 hour, 37° C., RAW 264.7 cells
[6] = cell-permeability relative to reference CPP MTM12 (B type), aMTD-fused CRA recombinant protein, 10 μM FITC-labeled, 1 hour, 37° C., RAW 264.7 cells

| Substance | Relative Ratio (Fold) A [1] | Relative Ratio (Fold) B [2] | Relative Ratio (Fold) C [3] | Relative Ratio (Fold) A [4] | Relative Ratio (Fold) C [5] | Relative Ratio (Fold) B [6] | other results |
| --- | --- | --- | --- | --- | --- | --- | --- |
| 385 (IVAIAVPALVAP; Amino acid Sequence of aMTD385) [compound 385] | 38.8 Fold | 25.9 Fold | 13.1 Fold |  |  |  |  |
| 938 (VPVLLPVVVPVP; Amino acid Sequence of rPeptide ID 938) [compound 938] |  |  |  |  |  |  | Relative Ratio to aMTD AVE (cell-permeability of rPeptide-fused CRA recombinant protein relative to average of 240 aMTDs, 10 μM FITC-labeled, 1 hour, 37° C., RAW 264.7 cells): 0.28 |
| 685 (ALLVAVLPAALP; Amino acid Sequence of aMTD685) [compound 685] | 10.2 Fold | 5.9 Fold | 3.4 Fold |  |  |  |  |
| 121 (AIVALPALALAP; Amino acid Sequence of aMTD121) [compound 121] |  |  |  | 2.5 Fold | 0.8 Fold | 1.7 Fold |  |
| 667 (LAVAIVAPALVP; Amino acid Sequence of aMTD667) [compound 667] |  |  |  | 6.9 Fold | 2.3 Fold | 4.6 Fold |  |
| 806 (LVALAVPAAVLP; Amino acid Sequence of aMTD806) [compound 806] | 36.7 Fold | 24.6 Fold | 12.4 Fold |  |  |  |  |
| 524 (AVALIVVPALAP; Amino acid Sequence of aMTD524) [compound 524] | 18.3 Fold | 12.2 Fold | 6.2 Fold |  |  |  |  |
| 305 (IALAAPILLAAP; Amino acid Sequence of aMTD305) [compound 305] |  |  |  | 4.8 Fold | 1.6 Fold | 3.2 Fold |  |
| 687 (AILAVALPLLAP; Amino acid Sequence of aMTD687) [compound 687] | 12.0 Fold | 7.0 Fold | 4.1 Fold |  |  |  |  |
| 24 (IALAAPALIVAP; Amino acid Sequence of aMTD24) [compound 24] |  |  |  | 2.3 Fold | 0.8 Fold | 1.6 Fold |  |
| 184 (LAAIVPAIIAVP; Amino acid Sequence of aMTD184) [compound 184] |  |  |  | 4.8 Fold | 1.6 Fold | 3.2 Fold |  |
| 832 (AVAAIVPVIVAP; Amino acid Sequence of aMTD832) [compound 832] |  |  |  | 4.1 Fold | 1.4 Fold | 2.7 Fold |  |
| 888 (ILAVVAIPAAAP; Amino acid Sequence of aMTD888) [compound 888] | 71.0 Fold | 47.5 Fold | 24.0 Fold |  |  |  |  |
| 422 (VVAILAPLLAAP; Amino acid Sequence of aMTD422) [compound 422] | 19.6 Fold | 13.1 Fold | 6.6 Fold |  |  |  |  |
| 882 (AIALVVPAVAVP; Amino acid Sequence of aMTD882) [compound 882] | 35.0 Fold | 23.4 Fold | 11.8 Fold |  |  |  |  |
| 324 (IVAVALPAALVP; Amino acid Sequence of aMTD324) [compound 324] | 10.3 Fold | 6.9 Fold | 3.5 Fold |  |  |  | Relative Ratio (Fold) A (relative cell-permeability of aMTD vs reference A (not defined)): 10.3 Fold; Relative Ratio (Fold) B (relative cell-permeability of aMTD vs reference CPP B: MTM12): 6.9 Fold; Relative Ratio (Fold) C (relative cell-permeability of aMTD vs reference CPP C: MTD85): 3.5 Fold |
| 883 (LAIVPAAIAALP; Amino acid Sequence of aMTD883) [compound 883] |  |  |  | 3.0 Fold | 1.0 Fold | 2.0 Fold |  |
| 848 (AVAIVVLPAVAP; Amino acid Sequence of aMTD848) [compound 848] | 10.0 Fold | 6.7 Fold | 3.4 Fold |  |  |  |  |
